Data taken from ChEMBL document CHEMBL4425121, “Discovery of Substituted 1H-Pyrazolo[3,4-b]pyridine Derivatives as Potent and Selective FGFR Kinase Inhibitors” (ACS Med Chem Lett, 2016).
Values belong to the molecule of their own block, whether it stands above or below them.

Tests used:
[1] = biological target: Fibroblast growth factor receptor 1 (Homo sapiens, UniProt P11362); test: Inhibition of recombinant human FGFR1 using poly (Glu,Tyr)4:1 as substrate incubated for 60 mins by ELISA
NCI-H1581 [2] = test: Antiproliferative activity against human NCI-H1581 cells after 72 hrs by CCK-8 assay; format: functional, cell-based; settings: NCI-H1581, 72 h
NCI-H1581 [3] = settings: Homo sapiens
Description: Antitumor activity against human NCI-H1581 cells xenografted in nude mouse assessed as tumor growth inhibition administered orally qd for 21 days

KG-1 = test: Antiproliferative activity against human KG1 cells after 72 hrs by CCK-8 assay; format: functional, cell-based; settings: KG-1, 72 h
SNU-16 = test: Antiproliferative activity against human SNU16 cells after 72 hrs by CCK-8 assay; format: functional, cell-based; settings: SNU-16, 72 h
[4] = AUC(0 to infinity) in ICR mouse at 12.5 mg/kg administered as oral gavage by LC-MS/MS analysis; format: ADME, organism-based; set-up: dose 12.5 mg/kg, route oral, time infinity; settings: in vivo
NCI-H1581 [5] = test: Antitumor activity against human NCI-H1581 cells xenografted in nude mouse assessed as tumor growth inhibition at 50 mg/kg, po qd administered for 21 days; format: functional; settings: 504 h, read-out: TGI
[6] = biological target: Fibroblast growth factor receptor 2 (Homo sapiens, UniProt P21802)
Sequence of Fibroblast growth factor receptor 2 (P21802 whole entry): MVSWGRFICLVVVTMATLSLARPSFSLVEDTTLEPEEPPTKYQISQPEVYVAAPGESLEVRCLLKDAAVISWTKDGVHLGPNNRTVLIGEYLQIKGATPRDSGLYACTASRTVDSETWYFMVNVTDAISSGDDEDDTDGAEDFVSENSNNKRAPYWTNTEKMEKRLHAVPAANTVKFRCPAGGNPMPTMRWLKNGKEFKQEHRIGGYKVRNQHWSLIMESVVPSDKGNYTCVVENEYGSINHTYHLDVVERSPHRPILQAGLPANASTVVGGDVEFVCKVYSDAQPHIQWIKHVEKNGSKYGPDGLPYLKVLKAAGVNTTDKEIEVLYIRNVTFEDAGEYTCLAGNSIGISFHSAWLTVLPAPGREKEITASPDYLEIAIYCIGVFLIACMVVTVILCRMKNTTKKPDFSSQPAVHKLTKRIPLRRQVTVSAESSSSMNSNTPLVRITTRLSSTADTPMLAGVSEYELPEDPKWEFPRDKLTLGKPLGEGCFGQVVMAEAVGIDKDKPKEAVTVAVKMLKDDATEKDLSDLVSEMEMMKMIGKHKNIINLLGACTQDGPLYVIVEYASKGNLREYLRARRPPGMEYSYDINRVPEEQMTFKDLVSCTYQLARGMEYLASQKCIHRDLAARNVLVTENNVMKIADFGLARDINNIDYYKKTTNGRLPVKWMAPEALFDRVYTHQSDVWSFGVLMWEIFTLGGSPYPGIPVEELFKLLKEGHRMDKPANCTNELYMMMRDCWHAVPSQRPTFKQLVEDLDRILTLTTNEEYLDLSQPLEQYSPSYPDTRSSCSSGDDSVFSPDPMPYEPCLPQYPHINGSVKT
Description: Inhibition of human FGFR2 using poly (Glu,Tyr)4:1 as substrate incubated for 60 mins by ELISA

[7] = Half life in ICR mouse at 2 mg/kg, iv by LC-MS/MS analysis; format: ADME, organism-based; settings: in vivo
[8] = Volume of distribution in ICR mouse at 2 mg/kg, iv by LC-MS/MS analysis; format: ADME, organism-based; settings: in vivo
[9] = Clearance in ICR mouse at 2 mg/kg, iv by LC-MS/MS analysis; format: ADME, organism-based; settings: in vivo
[10] = Cmax in ICR mouse at 12.5 mg/kg administered as oral gavage by LC-MS/MS analysis; format: ADME, organism-based; set-up: dose 12.5 mg/kg, route oral; settings: in vivo
[11] = biological target: Fibroblast growth factor receptor 4 (Homo sapiens, UniProt P22455)
Sequence of Fibroblast growth factor receptor 4 (P22455 whole entry): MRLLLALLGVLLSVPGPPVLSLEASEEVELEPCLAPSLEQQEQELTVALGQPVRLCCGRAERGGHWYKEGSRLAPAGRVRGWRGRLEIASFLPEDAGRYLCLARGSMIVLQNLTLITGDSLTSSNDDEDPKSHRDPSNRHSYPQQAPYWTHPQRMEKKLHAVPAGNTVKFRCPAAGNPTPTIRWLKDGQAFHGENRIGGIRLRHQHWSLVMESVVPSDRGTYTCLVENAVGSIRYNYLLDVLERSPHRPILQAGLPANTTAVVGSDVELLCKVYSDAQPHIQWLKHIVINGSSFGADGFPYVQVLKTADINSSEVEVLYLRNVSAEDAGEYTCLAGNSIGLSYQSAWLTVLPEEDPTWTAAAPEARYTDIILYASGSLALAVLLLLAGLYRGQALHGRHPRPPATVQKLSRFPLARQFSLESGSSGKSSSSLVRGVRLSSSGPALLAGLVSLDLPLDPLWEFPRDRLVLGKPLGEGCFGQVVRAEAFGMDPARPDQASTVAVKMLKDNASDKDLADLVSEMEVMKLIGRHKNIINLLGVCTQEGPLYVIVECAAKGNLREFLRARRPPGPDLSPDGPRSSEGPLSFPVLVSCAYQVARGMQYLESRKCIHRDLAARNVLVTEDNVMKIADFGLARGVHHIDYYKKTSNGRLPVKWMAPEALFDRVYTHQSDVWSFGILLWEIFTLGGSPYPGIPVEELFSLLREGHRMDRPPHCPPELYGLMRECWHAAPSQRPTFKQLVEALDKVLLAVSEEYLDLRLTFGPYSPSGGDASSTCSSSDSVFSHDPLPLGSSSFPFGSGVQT
Description: Inhibition of human FGFR4 using poly (Glu,Tyr)4:1 as substrate incubated for 60 mins by ELISA

[12] = Oral bioavailability in ICR mouse at 12.5 mg/kg administered as gavage by LC-MS/MS analysis; format: ADME, organism-based; settings: in vivo
[13] = Half life in ICR mouse at 12.5 mg/kg administered as oral gavage by LC-MS/MS analysis; format: ADME, organism-based; settings: in vivo
[14] = AUC(0 to infinity) in ICR mouse at 2 mg/kg, iv by LC-MS/MS analysis; format: ADME, organism-based; set-up: dose 2 mg/kg, time infinity, route intravenous; settings: in vivo
[15] = Protein binding in mouse plasma at 5 uM after 4 hrs by equilibrium dialysis assay; format: ADME, cell-free; settings: read-out: PPB (converted)
[16] = Cmax in ICR mouse at 2 mg/kg, iv by LC-MS/MS analysis; format: ADME, organism-based; set-up: dose 2 mg/kg, route intravenous; settings: in vivo
[17] = biological target: Fibroblast growth factor receptor 3 (Homo sapiens, UniProt P22607); test: Inhibition of human FGFR3 using poly (Glu,Tyr)4:1 as substrate incubated for 60 mins by ELISA
Sequence of Fibroblast growth factor receptor 3 (P22607 whole entry): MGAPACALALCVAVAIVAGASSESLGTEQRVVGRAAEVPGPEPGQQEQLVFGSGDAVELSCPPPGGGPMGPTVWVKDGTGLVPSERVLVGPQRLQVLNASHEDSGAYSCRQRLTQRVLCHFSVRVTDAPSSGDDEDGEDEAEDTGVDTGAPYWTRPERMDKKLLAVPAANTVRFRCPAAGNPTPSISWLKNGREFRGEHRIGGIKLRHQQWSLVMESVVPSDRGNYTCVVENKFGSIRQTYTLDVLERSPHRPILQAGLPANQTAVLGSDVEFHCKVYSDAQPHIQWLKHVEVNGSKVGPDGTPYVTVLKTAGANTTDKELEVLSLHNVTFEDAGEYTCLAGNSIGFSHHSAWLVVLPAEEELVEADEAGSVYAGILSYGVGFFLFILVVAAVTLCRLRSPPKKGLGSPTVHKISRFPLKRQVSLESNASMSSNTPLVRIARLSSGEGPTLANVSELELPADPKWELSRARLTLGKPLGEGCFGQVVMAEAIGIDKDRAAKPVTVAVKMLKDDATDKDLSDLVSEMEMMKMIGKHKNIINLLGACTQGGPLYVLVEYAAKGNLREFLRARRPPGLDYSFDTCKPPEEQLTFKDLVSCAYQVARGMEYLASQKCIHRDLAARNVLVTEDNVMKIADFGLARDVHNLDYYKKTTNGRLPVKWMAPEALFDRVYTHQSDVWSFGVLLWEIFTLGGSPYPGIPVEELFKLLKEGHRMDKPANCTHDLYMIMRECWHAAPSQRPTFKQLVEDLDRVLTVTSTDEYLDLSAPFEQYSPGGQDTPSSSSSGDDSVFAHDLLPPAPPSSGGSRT

[18] = Toxicity in nude mouse xenografted with human NCI-H1581 cells assessed as body weight loss at 50 mg/kg, po qd administered for 21 days; format: organism-based; settings: in vivo, 504 h
NCI-H1581 [19] = test: Antitumor activity against human NCI-H1581 cells xenografted in nude mouse assessed as tumor growth inhibition at 12.5 mg/kg, po qd administered for 21 days; format: functional; settings: 504 h, read-out: TGI
[20] = Toxicity in nude mouse xenografted with human NCI-H1581 cells assessed as body weight loss at 12.5 mg/kg, po qd administered for 21 days; format: organism-based; settings: in vivo, 504 h
[21] = Antiproliferative activity against human KATO III cells after 72 hrs by CCK-8 assay; format: functional, cell-based
RT-112 = test: Antiproliferative activity against human RT112 cells after 72 hrs by CCK-8 assay; format: functional, cell-based; settings: RT-112, 72 h
[22] = biological target: T1, Vascular endothelial growth factor receptor 2 (Homo sapiens, UniProt P35968); test: Inhibition of recombinant human VEGFR2 using poly (Glu,Tyr)4:1 as substrate incubated for 60 mins by ELISA
T1 sequence (P35968 whole entry): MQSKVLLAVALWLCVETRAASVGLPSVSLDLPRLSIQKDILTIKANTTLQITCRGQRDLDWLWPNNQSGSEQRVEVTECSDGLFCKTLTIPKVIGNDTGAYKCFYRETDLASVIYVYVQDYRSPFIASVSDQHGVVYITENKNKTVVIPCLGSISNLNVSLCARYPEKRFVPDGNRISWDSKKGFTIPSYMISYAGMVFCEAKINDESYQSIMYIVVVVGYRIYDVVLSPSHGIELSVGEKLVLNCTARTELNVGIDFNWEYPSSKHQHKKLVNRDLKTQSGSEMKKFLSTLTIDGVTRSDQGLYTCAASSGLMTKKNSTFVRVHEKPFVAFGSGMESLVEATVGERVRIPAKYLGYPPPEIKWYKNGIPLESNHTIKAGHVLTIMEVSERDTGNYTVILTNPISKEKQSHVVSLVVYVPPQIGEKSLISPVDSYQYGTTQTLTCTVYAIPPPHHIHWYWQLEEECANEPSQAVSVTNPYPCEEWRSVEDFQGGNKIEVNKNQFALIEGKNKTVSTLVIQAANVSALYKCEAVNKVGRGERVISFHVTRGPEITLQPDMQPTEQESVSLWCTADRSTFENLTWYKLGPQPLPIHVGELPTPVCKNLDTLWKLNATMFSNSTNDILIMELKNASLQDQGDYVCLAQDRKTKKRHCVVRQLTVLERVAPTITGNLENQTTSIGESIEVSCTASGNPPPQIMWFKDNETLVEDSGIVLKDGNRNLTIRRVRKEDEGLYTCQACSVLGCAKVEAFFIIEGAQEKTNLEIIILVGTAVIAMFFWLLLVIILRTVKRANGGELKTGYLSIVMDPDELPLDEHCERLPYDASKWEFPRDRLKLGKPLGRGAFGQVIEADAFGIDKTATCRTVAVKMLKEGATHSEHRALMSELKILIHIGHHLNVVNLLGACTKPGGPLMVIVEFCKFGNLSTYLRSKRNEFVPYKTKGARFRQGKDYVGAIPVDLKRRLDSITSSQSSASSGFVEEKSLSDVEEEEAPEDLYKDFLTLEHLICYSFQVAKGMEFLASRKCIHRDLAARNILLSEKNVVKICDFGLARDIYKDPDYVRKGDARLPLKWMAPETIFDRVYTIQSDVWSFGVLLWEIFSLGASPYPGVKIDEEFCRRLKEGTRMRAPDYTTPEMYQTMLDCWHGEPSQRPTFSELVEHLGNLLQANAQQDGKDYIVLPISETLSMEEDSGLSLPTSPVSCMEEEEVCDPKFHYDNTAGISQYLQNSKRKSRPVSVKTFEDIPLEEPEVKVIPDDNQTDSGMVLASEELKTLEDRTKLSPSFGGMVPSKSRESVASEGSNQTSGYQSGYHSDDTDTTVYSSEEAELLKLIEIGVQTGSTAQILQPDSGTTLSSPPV

[23] = biological target: T1, Vascular endothelial growth factor receptor 2; test: Inhibition of VEGFR2 (unknown origin) overexpressed in mouse NIH/ 3T3 cells incubated for 5 mins followed by stimulation with VEGF for 5 mins by immunoblotting analysis; format: cell-based

Sequence of Fibroblast growth factor receptor 1 (P11362 whole entry): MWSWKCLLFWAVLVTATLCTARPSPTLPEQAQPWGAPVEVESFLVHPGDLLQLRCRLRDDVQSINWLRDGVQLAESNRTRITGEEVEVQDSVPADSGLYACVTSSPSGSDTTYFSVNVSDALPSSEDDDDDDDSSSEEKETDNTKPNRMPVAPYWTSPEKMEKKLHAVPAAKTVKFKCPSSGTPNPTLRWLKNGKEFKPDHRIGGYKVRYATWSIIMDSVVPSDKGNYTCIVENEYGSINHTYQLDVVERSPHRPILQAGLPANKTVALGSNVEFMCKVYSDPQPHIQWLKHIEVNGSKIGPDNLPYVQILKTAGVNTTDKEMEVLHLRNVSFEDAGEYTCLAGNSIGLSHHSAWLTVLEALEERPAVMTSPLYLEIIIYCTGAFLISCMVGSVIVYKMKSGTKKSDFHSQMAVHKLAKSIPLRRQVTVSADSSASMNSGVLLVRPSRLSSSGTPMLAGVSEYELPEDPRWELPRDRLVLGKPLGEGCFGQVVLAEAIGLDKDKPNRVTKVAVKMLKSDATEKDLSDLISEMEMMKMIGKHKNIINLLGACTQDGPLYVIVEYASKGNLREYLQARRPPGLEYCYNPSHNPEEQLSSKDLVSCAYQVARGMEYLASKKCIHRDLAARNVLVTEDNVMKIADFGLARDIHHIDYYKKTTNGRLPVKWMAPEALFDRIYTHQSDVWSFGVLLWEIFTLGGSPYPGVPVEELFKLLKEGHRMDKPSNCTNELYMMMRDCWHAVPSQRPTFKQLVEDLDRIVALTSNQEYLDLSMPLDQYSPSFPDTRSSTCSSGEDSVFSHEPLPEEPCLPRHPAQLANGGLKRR

SMILES: COc1cc(OC)c(Cl)c(-c2ccc3c(NC(=O)c4ccc(N5CCN(C)CC5)cc4)nn(C)c3n2)c1Cl
IC50 [1]: > 5000 nM

SMILES: COc1cc(OC)c(Cl)c(-c2ccc3c(NC(=O)c4ccc(N(C)CCN(C)C)cc4)n[nH]c3n2)c1Cl
IC50 [1]: 3.9 nM
IC50 (NCI-H1581 [2]): 11 nM

SMILES: COc1cc(N2CCN(C)CC2)ccc1C(=O)Nc1n[nH]c2nc(-c3c(Cl)c(OC)cc(OC)c3Cl)ccc12
IC50 [1]: 74.4 nM
IC50 (NCI-H1581 [2]): 525 nM

SMILES: COc1cc(CCc2cc(NC(=O)c3ccc(N4C[C@@H](C)N[C@@H](C)C4)cc3)n[nH]2)cc(OC)c1 [FEXAGRATINIB]
IC50 (KG-1): < 0.2 nM
IC50 (SNU-16): 1.2 nM
AUC(0-inf) [4]: 9130 ng·h/mL
half-life [7]: 2.29 h
Vd [8]: 3.18 L/kg
clearance [9]: 16.1 mL/min/kg
Cmax [10]: 1350 ng/mL
IC50 (NCI-H1581 [2]): 37.9 nM
bioavailability [12]: 74.7%
half-life [13]: 2.55 h
AUC(0-inf) [14]: 2080 ng·h/mL
fraction unbound at 4 h, 5 µM [15]: 0.007
Cmax [16]: 1880 ng/mL
inhibition in vivo at 12.5 mg/kg (NCI-H1581 [19]): 77.1%
IC50 [21]: 20.2 nM
IC50 (RT-112): 0.6 nM

SMILES: COc1cc(OC)c(Cl)c(-c2ccc3c(NC(=O)c4ccc(C5CCN(C)CC5)cc4)n[nH]c3n2)c1Cl
IC50 [1]: 6.9 nM
IC50 (NCI-H1581 [2]): 8.2 nM

SMILES: COc1cc(OC)c(Cl)c(-c2ccc3c(NC(=O)c4ccc(N5CCN(C)CC5)cc4)n[nH]c3c2)c1Cl
IC50 [1]: 3.3 nM
IC50 (NCI-H1581 [2]): 324 nM

SMILES: COc1cc(C(=O)Nc2n[nH]c3nc(-c4c(Cl)c(OC)cc(OC)c4Cl)ccc23)ccc1N1CCN(C)CC1
IC50 [1]: 14.2 nM
IC50 (NCI-H1581 [2]): 15.6 nM

SMILES: CCN(CC)CCCCNc1ncc2cc(-c3cc(OC)cc(OC)c3)c(NC(=O)NC(C)(C)C)nc2n1 [PD-173074]
IC50 [23]: 100 to 200 nM

SMILES: COc1cc(OC)c(Cl)c(-c2ccc3c(NC(=O)c4cnc(N5CCN(C)CC5)cn4)n[nH]c3n2)c1Cl
IC50 [1]: 10.5 nM
IC50 (NCI-H1581 [2]): 60.6 nM

SMILES: COc1cc(OC)c(Cl)c(-c2ccc3c(NC(=O)c4ccc(N)cc4)n[nH]c3n2)c1Cl
IC50 [1]: 8.8 nM
IC50 (NCI-H1581 [2]): 218 nM

SMILES: COc1cc(OC)c(Cl)c(-c2ccc3c(NC(=O)c4ccc(N(C)C)cc4)n[nH]c3n2)c1Cl
IC50 [1]: 16.5 nM
IC50 (NCI-H1581 [2]): 294 nM

SMILES: COc1cc(OC)c(Cl)c(-c2ccc3c(NC(=O)c4ccc(N5CCN(C)CC5)s4)n[nH]c3n2)c1Cl
IC50 [1]: 4.1 nM
IC50 (NCI-H1581 [2]): 3.7 nM

SMILES: COc1cc(OC)cc(-c2ccc3c(NC(=O)c4ccc(N5CCN(C)CC5)cc4)n[nH]c3n2)c1
IC50 [22]: 548 nM
IC50 [1]: 3710 nM
IC50 (NCI-H1581 [2]): > 1000 nM

SMILES: COc1cc(OC)c(Cl)c(-c2ccc3c(NC(=O)c4ccccc4)n[nH]c3n2)c1Cl
IC50 [1]: 42.4 nM
IC50 (NCI-H1581 [2]): > 1000 nM

Further lines, with some results ahead:

IC50 [1]: 0.2 nM
IC50 (NCI-H1581 [2]): 245 nM
SMILES: COc1cc(OC)c(Cl)c(-c2ccc3c(NC(=O)c4ccc(N5CCN(S(C)(=O)=O)CC5)cc4)n[nH]c3n2)c1Cl

IC50 [1]: 14 nM
IC50 (NCI-H1581 [2]): 27.6 nM
SMILES: COc1cc(OC)c(Cl)c(-c2ccc3c(NC(=O)c4ccc(N5CCN(C)CC5)cc4Cl)n[nH]c3n2)c1Cl

IC50 [1]: 0.6 nM
IC50 (NCI-H1581 [2]): 3.3 nM
SMILES: C=CCN1CCN(c2ccc(C(=O)Nc3n[nH]c4nc(-c5c(Cl)c(OC)cc(OC)c5Cl)ccc34)cc2)CC1

IC50 [1]: 7.7 nM
IC50 (NCI-H1581 [2]): 865 nM
SMILES: COc1cc(OC)c(Cl)c(-c2ccc3c(NC(=O)c4ccc(N5CCOCC5)cc4)n[nH]c3n2)c1Cl

IC50 [1]: 1.4 nM
IC50 (NCI-H1581 [2]): 1.4 nM
SMILES: COc1cc(OC)c(Cl)c(-c2ccc3c(NC(=O)c4ccc(N5CCN(C(C)C)CC5)cc4)n[nH]c3n2)c1Cl

IC50 [1]: 0.3 nM
IC50 (SNU-16): < 0.2 nM
AUC(0-inf) [4]: 9010 ng·h/mL
IC50 [6]: 0.7 nM
half-life [7]: 3.13 h
Vd [8]: 4.51 L/kg
clearance [9]: 16.6 mL/min/kg
Cmax [10]: 1650 ng/mL
IC50 [11]: 52.7 nM
IC50 (NCI-H1581 [2]): 0.7 nM
bioavailability [12]: 72%
half-life [13]: 2.76 h
AUC(0-inf) [14]: 2000 ng·h/mL
fraction unbound at 4 h, 5 µM [15]: 0.004
Cmax [16]: 826 ng/mL
IC50 [17]: 2 nM
SMILES: COCCN1CCN(c2ccc(C(=O)Nc3n[nH]c4nc(-c5c(Cl)c(OC)cc(OC)c5Cl)ccc34)cc2)CC1
TGI (NCI-H1581 [3]): Dose-dependent effect
IC50 (KG-1): < 0.2 nM
inhibition in vivo at 50 mg/kg (NCI-H1581 [5]): 100%
Activity [18]: Non-Toxic
inhibition in vivo at 12.5 mg/kg (NCI-H1581 [19]): 54%
Activity [20]: Non-Toxic
IC50 [21]: < 0.4 nM
IC50 (RT-112): < 0.2 nM

IC50 [1]: 0.5 nM
IC50 (NCI-H1581 [2]): 0.7 nM
SMILES: CCN1CCN(c2ccc(C(=O)Nc3n[nH]c4nc(-c5c(Cl)c(OC)cc(OC)c5Cl)ccc34)cc2)CC1

IC50 [22]: 366 nM
IC50 [1]: 0.3 nM
IC50 (NCI-H1581 [2]): 1.7 nM
SMILES: COc1cc(OC)c(Cl)c(-c2ccc3c(NC(=O)c4ccc(N5CCN(C)CC5)cc4)n[nH]c3n2)c1Cl

IC50 [1]: 14.5 nM
IC50 (NCI-H1581 [2]): 191 nM
SMILES: COc1cc(OC)c(Cl)c(-c2ccc3c(NC(=O)c4ccc(N5CCN(C)CC5)c(Cl)c4)n[nH]c3n2)c1Cl

IC50 [1]: 7.8 nM
IC50 (NCI-H1581 [2]): 4.4 nM
SMILES: COc1cc(OC)c(Cl)c(-c2ccc3c(NC(=O)c4ccc(N5CCN(C)CC5)cn4)n[nH]c3n2)c1Cl

IC50 [1]: 0.2 nM
IC50 (NCI-H1581 [2]): 2.3 nM
SMILES: COc1cc(OC)c(Cl)c(-c2ccc3c(NC(=O)c4ccc(N5CCN(C6CCC6)CC5)cc4)n[nH]c3n2)c1Cl

IC50 [1]: 6.2 nM
IC50 (NCI-H1581 [2]): 1.5 nM
SMILES: COc1cc(OC)c(Cl)c(-c2ccc3c(NC(=O)c4ccc(N5CCN(C)CC5)nc4)n[nH]c3n2)c1Cl

IC50 [1]: 0.3 nM
IC50 (NCI-H1581 [2]): 43.3 nM
SMILES: COc1cc(OC)c(Cl)c(-c2ccc3c(NC(=O)c4ccc(N5CCN(C(C)=O)CC5)cc4)n[nH]c3n2)c1Cl

IC50 [1]: 7.2 nM
AUC(0-inf) [4]: 4620 ng·h/mL
half-life [7]: 3.47 h
Vd [8]: 5.43 L/kg
clearance [9]: 18.1 mL/min/kg
Cmax [10]: 500 ng/mL
IC50 (NCI-H1581 [2]): 1.3 nM
bioavailability [12]: 40.2%
half-life [13]: 2.9 h
AUC(0-inf) [14]: 1840 ng·h/mL
fraction unbound at 4 h, 5 µM [15]: 0.004
Cmax [16]: 870 ng/mL
SMILES: COc1cc(OC)c(Cl)c(-c2ccc3c(NC(=O)c4ccc(N5CCCN(C)CC5)cc4)n[nH]c3n2)c1Cl

IC50 [1]: 11.7 nM
IC50 (NCI-H1581 [2]): 1.4 nM
SMILES: COc1cc(OC)c(Cl)c(-c2ccc3c(NC(=O)c4ccc(N5CCNCC5)cc4)n[nH]c3n2)c1Cl

IC50 [1]: 8.8 nM
IC50 (NCI-H1581 [2]): 558 nM
SMILES: COc1cc(OC)c(Cl)c(-c2ccc3c(NC(=O)c4ccc(N5CCCCC5)cc4)n[nH]c3n2)c1Cl

IC50 [1]: 0.3 nM
AUC(0-inf) [4]: 3510 ng·h/mL
half-life [7]: 3.74 h
Vd [8]: 10 L/kg
clearance [9]: 31 mL/min/kg
Cmax [10]: 802 ng/mL
IC50 (NCI-H1581 [2]): < 0.5 nM
bioavailability [12]: 52.3%
half-life [13]: 3.38 h
AUC(0-inf) [14]: 1080 ng·h/mL
fraction unbound at 4 h, 5 µM [15]: 0.005
Cmax [16]: 796 ng/mL
SMILES: COc1cc(OC)c(Cl)c(-c2ccc3c(NC(=O)c4ccc(N5CCN(CCO)CC5)cc4)n[nH]c3n2)c1Cl
